Six compounds from patent publication US12077503B2, “Substituted cyclic amides and their use as herbicides” (FMC CORPORATION, priority 2015, dated 2024) can be followed below.

Read-outs that look alike come from different tables or passages of the source.

Assay in all cases: Test A postemergence
Type in all cases: in vivo

Assay [1] has as its system Galium (catchweed bedstraw, Galium aparine). The conditions noted are these: Galium, post-emergence, 240 h; for pest or weed control at 125 g/ha: 125 g ai/ha, postemergence; for pest or weed control at 500 g/ha / pest or weed control at 31 g/ha: Postemergence; for pest or weed control at 500 g/ha: 500 g ai/ha, visual injury, approx. 10 d; for pest or weed control at 31 g/ha: 31 g ai/ha, visual injury after approx. 10 d, 0 to 100 scale, 0 no effect, 100 complete control. In outline: (§1)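 Seeded soil received test chemicals as a preemergence directed spray, and seedlings at one to two leaves, 2–10 cm tall, received them postemergence, in a non-phytotoxic, surfactant-containing solvent mixture. Pots were held in a greenhouse for approximately 10 d, then rated for injury from 0, no effect, to 100, complete control.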

The next assay concerns Kochia (Kochia scoparia). The conditions noted are these: Bassia scoparia, post-emergence, 240 h; for pest or weed control at 125 g/ha: 125 g ai/ha, postemergence; for pest or weed control at 500 g/ha / pest or weed control at 31 g/ha: Postemergence; for pest or weed control at 500 g/ha: 500 g ai/ha, visual injury, approx. 10 d; for pest or weed control at 31 g/ha: 31 g ai/ha, visual injury after approx. 10 d, 0 to 100 scale, 0 no effect, 100 complete control. A digest of the protocol:
as §1

In assay [2] the test system is blackgrass (Alopecurus myosuroides). To be noted: Alopecurus myosuroides, post-emergence, 240 h; for pest or weed control at 125 g/ha: 125 g ai/ha, postemergence; for pest or weed control at 500 g/ha / pest or weed control at 31 g/ha: Postemergence; for pest or weed control at 500 g/ha: 500 g ai/ha, visual injury, approx. 10 d; for pest or weed control at 31 g/ha: 31 g ai/ha, visual injury after approx. 10 d, 0 to 100 scale, 0 no effect, 100 complete control. In outline:
as §1

A further assay relates to corn (Zea mays). The conditions noted are these: Zea mays, post-emergence, 240 h; for plant injury at 125 g/ha / Corn plant response rating (crop injury, 0 = no effect, 100 = complete kill) at 125 g/ha: 125 g ai/ha, postemergence; for plant injury at 125 g/ha: visual injury vs untreated controls after approx. 10 d, 0 = no effect, 100 = complete control, read-out: Corn plant response rating (0 to 100 scale); for Corn plant response rating (crop injury, 0 = no effect, 100 = complete kill) at 500 g/ha / Corn plant response rating (crop injury, 0 = no effect, 100 = complete kill) at 31 g/ha: Postemergence; for Corn plant response rating (crop injury, 0 = no effect, 100 = complete kill) at 500 g/ha: 500 g ai/ha, visual injury, approx. 10 d; for Corn plant response rating (crop injury, 0 = no effect, 100 = complete kill) at 500 g/ha / Corn plant response rating (crop injury, 0 = no effect, 100 = complete kill) at 125 g/ha: 0 to 100 scale (0 no effect, 100 complete control); for Corn plant response rating (crop injury, 0 = no effect, 100 = complete kill) at 125 g/ha: visual injury after approximately 10 d; for Corn plant response rating (crop injury, 0 = no effect, 100 = complete kill) at 31 g/ha: 31 g ai/ha, visual injury after approx. 10 d, 0 to 100 scale, 100 complete control. In outline: as §1

In assay [3] the test system is ragweed (common ragweed, Ambrosia elatior). To be noted: Ambrosia artemisiifolia, post-emergence, 240 h; for pest or weed control at 125 g/ha: 125 g ai/ha, postemergence; for pest or weed control at 500 g/ha / pest or weed control at 31 g/ha: Postemergence; for pest or weed control at 500 g/ha: 500 g ai/ha, visual injury, approx. 10 d; for pest or weed control at 31 g/ha: 31 g ai/ha, visual injury after approx. 10 d, 0 to 100 scale, 0 no effect, 100 complete control. In outline:
as §1

For assay [4], the system named is wheat (Triticum aestivum). The conditions noted are these: Triticum aestivum, post-emergence, 240 h; for plant injury at 125 g/ha: 125 g ai/ha, postemergence; for plant injury at 500 g/ha / plant injury at 31 g/ha: Postemergence; for plant injury at 500 g/ha: 500 g ai/ha, visual injury, approx. 10 d; for plant injury at 31 g/ha: 31 g ai/ha, visual injury after approx. 10 d, 0 to 100 scale, 0 no effect, 100 complete control. In outline:
as §1

Where [5] appears, read: visual injury vs untreated controls after approx. 10 d, 0 = no effect, 100 = complete control, read-out: Galium plant response rating (0 to 100 scale).
Where [6] appears, read: 0 to 100 scale (0 no effect, 100 complete control), read-out: Plant response rating, Galium.
[7] abbreviates: visual injury vs untreated controls after approx. 10 d, 0 = no effect, 100 = complete control, read-out: Kochia plant response rating (0 to 100 scale).
The mark [8] stands for this setting: 0 to 100 scale (0 no effect, 100 complete control), read-out: Plant response rating, Kochia.
[9] abbreviates: visual injury vs untreated controls after approx. 10 d, 0 = no effect, 100 = complete control, read-out: Blackgrass plant response rating (0 to 100 scale).
[10] abbreviates: 0 to 100 scale (0 no effect, 100 complete control), read-out: Plant response rating, Blackgrass.
The mark [11] stands for this setting: visual injury vs untreated controls after approx. 10 d, 0 = no effect, 100 = complete control, read-out: Ragweed plant response rating (0 to 100 scale).
Setting [12] is: 0 to 100 scale (0 no effect, 100 complete control), read-out: Plant response rating, Ragweed.
Where [13] appears, read: 0 to 100 scale (0 no effect, 100 complete control), read-out: Plant response rating, Wheat.
Setting [14] is: visual injury after approximately 10 d, 0 to 100 scale (0 no effect, 100 complete control), read-out: Plant response rating, Galium.
The mark [15] stands for this setting: visual injury after approximately 10 d, 0 to 100 scale (0 no effect, 100 complete control), read-out: Plant response rating, Kochia.
[16] abbreviates: visual injury after approximately 10 d, 0 to 100 scale (0 no effect, 100 complete control), read-out: Plant response rating, Blackgrass.
The mark [17] stands for this setting: visual injury after approximately 10 d, 0 to 100 scale (0 no effect, 100 complete control), read-out: Plant response rating, Ragweed.
[18] abbreviates: visual injury after approximately 10 d, 0 to 100 scale (0 no effect, 100 complete control), read-out: Plant response rating, Wheat.
The mark [19] stands for this setting: read-out: Plant response rating, Galium.
The mark [20] stands for this setting: read-out: Plant response rating, Kochia.
The mark [21] stands for this setting: read-out: Plant response rating, Blackgrass.
Setting [22] is: read-out: Plant response rating, Ragweed.
Where [23] appears, read: read-out: Plant response rating, Wheat.

Turning to `CSc1ccccc1NC(=O)[C@H]1C(=O)N(C)C[C@@H]1c1ccc2c(c1)OC(F)(F)O2` [Compound 1251], the pest or weed control at 125 g/ha in assay [1] (setting [5]) came to 50%; with Kochia (Kochia scoparia) (setting [7]), 50%; in assay [2] (setting [9]), 0%; in assay [3] (setting [11]) it was 0%. The pest or weed control at 500 g/ha in assay [1] (setting [6]) was 50%; with Kochia (Kochia scoparia) (setting [8]), 70%; in assay [2] (setting [10]), 40%; in assay [3] (setting [12]) it was 50%. In addition, the plant injury at 125 g/ha in the assay with corn (Zea mays) stood at 20%; in assay [4] (visual injury vs untreated controls after approx. 10 d, 0 = no effect, 100 = complete control, read-out: Wheat plant response rating (0 to 100 scale)), 30%. Also, the Corn plant response rating (crop injury, 0 = no effect, 100 = complete kill) at 500 g/ha in the assay with corn (Zea mays) came to 80%. In addition, the plant injury at 500 g/ha in assay [4] (setting [13]) worked out at 60%.
As for `Cc1ccc([C@H]2CNC(=S)[C@@H]2C(=O)Nc2cccc(F)c2C)cc1C` [Compound 764], the pest or weed control at 125 g/ha (in assay [1] (setting [14]); in the assay with Kochia (Kochia scoparia) (setting [15]); in assay [2] (setting [16]); in assay [3] (setting [17])) was 0% in each case. In the assay on corn (Zea mays), this compound came in with a Corn plant response rating (crop injury, 0 = no effect, 100 = complete kill) at 125 g/ha of 0%. Further, the plant injury at 125 g/ha in assay [4] (setting [18]) amounted to 0%.
Turning to `COc1cc([C@H]2CN(C)C(=O)[C@@H]2C(=O)Nc2cccc(F)c2F)ccc1C(F)(F)F` [Compound 770], the pest or weed control at 125 g/ha is 60% in assay [1] (setting [14]), 40% in the assay on Kochia (Kochia scoparia) (setting [15]), 0% in assay [2] (setting [16]) and 0% in assay [3] (setting [17]). For the same compound, the pest or weed control at 31 g/ha was 30% in assay [1] (setting [19]), 0% with Kochia (Kochia scoparia) (setting [20]), 0% in assay [2] (setting [21]) and 0% in assay [3] (setting [22]). The Corn plant response rating (crop injury, 0 = no effect, 100 = complete kill) at 125 g/ha in the assay on corn (Zea mays) was found to be 50%. In addition, the Corn plant response rating (crop injury, 0 = no effect, 100 = complete kill) at 31 g/ha in the assay with corn (Zea mays) was 0%. Besides, in assay [4] (setting [18]), the plant injury at 125 g/ha came to 0%. The plant injury at 31 g/ha in assay [4] (setting [23]) came out at 0%.
On to `CSc1ccccc1NC(=O)[C@H]1C(=O)N(C)C[C@@H]1c1ccc(C(F)F)cc1` [Compound 799], for which the pest or weed control at 125 g/ha in assay [1] (setting [14]) is 50%; in the assay on Kochia (Kochia scoparia) (setting [15]), 30%; in assay [2] (setting [16]), 30%; in assay [3] (setting [17]) it was 0%. The pest or weed control at 31 g/ha (in assay [1] (setting [19]); in the assay with Kochia (Kochia scoparia) (setting [20]); in assay [2] (setting [21]); in assay [3] (setting [22])) was 0% in each case. In the assay on corn (Zea mays), the Corn plant response rating (crop injury, 0 = no effect, 100 = complete kill) at 125 g/ha is 20%. Further, the Corn plant response rating (crop injury, 0 = no effect, 100 = complete kill) at 31 g/ha with corn (Zea mays) stood at 0%. Moreover, the plant injury at 31 g/ha in assay [4] (setting [23]) stood at 0%.
Take `CSc1ccccc1NC(=O)[C@H]1C(=O)N(C)C[C@@H]1c1cc(C)c(C)c(C)c1` [Compound 798]: the pest or weed control at 125 g/ha in assay [1] (setting [14]) turned out to be 20%; with Kochia (Kochia scoparia) (setting [15]) it was 0%; in assay [2] (setting [16]), 40%; in assay [3] (setting [17]), 0%. Further, the pest or weed control at 31 g/ha (in assay [1] (setting [19]); with Kochia (Kochia scoparia) (setting [20]); in assay [2] (setting [21]); in assay [3] (setting [22])) was 0% each time. In the assay with corn (Zea mays), this compound showed a Corn plant response rating (crop injury, 0 = no effect, 100 = complete kill) at 125 g/ha of 40%. In the assay on corn (Zea mays), this compound returned a Corn plant response rating (crop injury, 0 = no effect, 100 = complete kill) at 31 g/ha of 0%. In assay [4] (setting [23]), the plant injury at 31 g/ha stood at 0%.
As for `CSc1ccccc1NC(=O)[C@H]1C(=O)NC[C@@H]1c1ccc2c(c1)OCO2` [Compound 1257], the pest or weed control at 125 g/ha (in assay [1] (setting [5]); in the assay with Kochia (Kochia scoparia) (setting [7]); in assay [2] (setting [9]); in assay [3] (setting [11])) was 0% in each case. For the same compound, the pest or weed control at 500 g/ha (in assay [1] (setting [6]); in the assay on Kochia (Kochia scoparia) (setting [8]); in assay [2] (setting [10]); in assay [3] (setting [12])) was 0% each time. The plant injury at 125 g/ha in the assay with corn (Zea mays) was 0%. This compound registered a Corn plant response rating (crop injury, 0 = no effect, 100 = complete kill) at 500 g/ha with corn (Zea mays) of 0%. In addition, the plant injury at 500 g/ha in assay [4] (setting [13]) came to 0%.
